Patent publication US20200399392A1, “INHIBITORS OF PLA2-G1B COFACTORS FOR TREATING CANCER” (priority 2018, published 2020)

How the values were obtained:
pSTAT5 NT in CD4 T cells = assay: PLA2-GIB bioassay on CD4 T cells: pSTAT5 nuclear translocation in response to IL-7, confocal microscopy; assay type: cell-based, human; settings: for effect on pSTAT5 NT: FIG. 5B; for nuclear translocation of phosphoSTAT5 (pSTAT5 NT) induced by IL-7: buffer, FIG. 1A; for pSTAT5 NT in response to IL-7: FIG. 2
Text: Purification of Human CD4 T-lymphocytes—Venous blood was obtained from healthy volunteers through the EFS (Etablissement Français du Sang, Centre Necker-Cabanel, Paris). CD4 T-cells were purified from whole blood using RosetteSep Human CD4+ T cell Enrichment Cocktail (Stem Cell, 15062). This cocktail contains mouse and rat monoclonal antibodies purified from mouse ascites fluid or hybridoma culture supernatant, by affinity chromatography using protein A or Protein G sepharose. These antibodies are bound in bispecific tetrameric antibody complexes which are directed against cell surface antigens on human hematopoietic cells (CD8, CD16, CD19, CD36, CD56 CD66b, TCRγ/δ) and glycophorin A on red blood cells. The rosetteSep antibody cocktail crosslinks unwanted cells in human whole blood to multiple red blood cells, forming immunorosettes. This increases the density of unwanted cells, such that they pellet along with the free red blood cells when centrifuged over a buoyant density medium such as lymphocytes separation medium (Eurobio, CMSMSL01-01).
Whole blood was incubated with RosetteSep Human CD4+ T cell Enrichment Cocktail at 50 μl/ml for 20 minutes at room temperature under gentle shaking (100 rpm), diluted with an equal volume of PBS+2% foetal bovine serum (FBS) and mixed gently. The diluted samples were centrifuged 20 minutes at 1200×g on top of lymphocytes separation medium. The enriched cells were then collected from the density medium at plasma interface and washed twice with PBS+2% FBS. Cells were subsequently resuspended in RPMI 1640 medium (Lonza) supplemented with 5% FBS, 50 mM HEPES pH 7.4, glutamine, penicillin, streptomycin and fungizone (complete medium), counted with a Moxi Z mini automated cell counter (ORFLO, MXZ000). Cells suspension was adjusted at 7×10^6 cells/ml and equilibrated at least 2 h at 37° C. in a 5% CO2 humidified atmosphere.
The enriched CD4-T cell population was controlled by flow cytometry on a cytoflex (Beckman coulter). The quiescence of recovered CD4 T-cells was controlled by the low level of IL-2Rα (CD25).

gC1qR = biological target: T1, gC1qR (Homo sapiens, UniProt Q07021); assay: gC1qR-peptides binding assay (ELISA on microplates); settings: peptide coated, His-tag-gC1qR 0 to 3 μg/well, FIG. 12
T1 sequence (Q07021 74-282): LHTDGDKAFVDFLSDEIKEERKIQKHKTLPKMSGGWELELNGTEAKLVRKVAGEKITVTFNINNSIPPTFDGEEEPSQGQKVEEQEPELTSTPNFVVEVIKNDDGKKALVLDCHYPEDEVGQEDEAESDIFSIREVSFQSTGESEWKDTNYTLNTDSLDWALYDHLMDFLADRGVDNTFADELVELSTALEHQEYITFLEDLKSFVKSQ
Method: The unbound protein was removed; the wells washed 2× with TBST (20 mM Tris-HCl pH 7.5, 150 mM NaCl, and 0.05% Tween-20) and the unreacted sites blocked by incubation (30 min, room temp) with 300 μl of 3% BSA in TBST. After washing (2× with TBST), the microtiter plate bound peptides was incubated (2 h, room temp.) with different amount of His-tag-gC1qR ranging from 0 to 3 μg/well in triplicate. After washing (5 times with TBST), 100 μl of anti-His tag-HRP antibody (1:1000; 71840-3, Merck) in 3% BSA in TBST was added per well and incubated for 2 h at room temperature. Microplates wells were then washed (5 times with TBST) and 100 μl of TMB ELISA substrate standard solution (UP664781, Interchim) was added per well. Reaction was stopped with 100 μl per well of a H2SO4 solution at 0.16M and OD at 450 nm was measured on a microplate reader (Tecan Infinite M1000 Pro).
A scrambled peptide or a control peptide were used as control.

PLA2-GIB [1] = assay: PLA2-GIB enzymatic assay on [3H] arachidonic acid labelled Jurkat E6.1 T cells; assay type: cell-based, human; settings: Jurkat E6.1 cells pretreated 21 h, 200 nM PLA2-GIB, FIG. 15
Method: Jurkat E6.1 T cells (ECACC 88042803) or gC1qR KO Jurkat E6.1 T cells were incubated for 17 h at 5×10^5 cells/ml with 1 μCi/ml of arachidonic acid [5,6,8,9,11,14,15-^3H(N)] (Perkin Elmer, NET298Z250UC) in RPMI 1640 medium (Lonza) supplemented with 10% FBS, 50 mM HEPES pH 7.4, glutamine, penicillin, streptomycin and fungizone at 2 ml/well in 6-well plates at 37° C. in a 5% CO2 humidified atmosphere. Cells were washed twice with RPMI with 10% FBS by centrifugation at 300×g for 10 minutes at room temperature and then frozen in 90% FBS 10% DMSO at 10^7 cells/ml/vial at −80° C. Percent of [3H] arachidonic acid in CD4 T cells is the (1 minus ratio of [3H] arachidonic acid in the supernatant of CD4 T cells without cells (cpm/ml) on total [3H] arachidonic acid in supernatant and cells (cpm/ml).
To test PLA2-GIB activity on [3H] arachidonic acid labelled Jurkat E6.1 T lymphocytes, cells were unfrozen in 10% FBS RPMI preheated at 37° C. by centrifugation at 300×g for 10 minutes at room temperature, washed twice in 2.5% FBS RPMI, and equilibrated at 5×10^4 or 10^5 Jurkat E6.1 T cells/400 μl/well in 24-well polystyrene plates for 1 h30 at 37° C. in a 5% CO2 humidified atmosphere. Then HCV core solution or vehicle dilution in 2.5% FBS RPMI at 5.95 μM was mixed with an equal volume of a PLA2GIB solution at 630 nM or 2 μM 2.5% FBS RPMI and 100 μl were added per well at the same time for 2 h. For peptide treatments, cells were pretreated for 2 h, 4 h or 21 h, as indicated on figures, with 50 μl per well of peptide solutions at 110 μM or 55 μM in 2.5% FBS RPMI. Then 50 μl per well of PLA2-GIB at 630 nM or 2 μM 2.5% FBS RPMI or medium alone were added for 2 h. Cells and supernatant were collected in eppendorf tubes and centrifuged at 580×g for 10 minutes at room temperature. The [3H] arachidonic acid released in cell supernatant was quantified in 300 μl with 16 ml of Ultima gold (Perkin Elmer, 6013329) in low diffusion vials (Perkin Elmer, 6000477) on a counter (tri-Carb 2800 TR liquid scintillation analyzer, Perkin Elmer).

PLA2-GIB [2] = assay: PLA2-GIB enzymatic assay on [3H] arachidonic acid labelled CD4 T cells; assay type: cell-based, human; settings: SA protein A alone at 10, 25 and 50 μg/ml, FIG. 9A
Method: PLA2-GIB enzymatic assay on [3H] arachidonic acid labelled CD4 T cells or Jurkat E6.1 T cells—Purified CD4 T-cells were incubated for 16 h at 2×10^6 cells/ml with 1 μCi/ml of arachidonic acid [5,6,8,9,11,14,15-^3H(N)] (Perkin Elmer, NET298Z250UC) in RPMI 1640 medium (Lonza) supplemented with 10% FBS, 50 mM HEPES pH 7.4, glutamine, penicillin, streptomycin and fungizone at 2 ml/well in 6-well plates at 37° C. in a 5% CO2 humidified atmosphere. Cells were washed twice with RPMI with 10% FBS by centrifugation at 580×g for 10 minutes at room temperature and then frozen in 90% FBS 10% DMSO at 10^7 cells/ml/vial at −80° C. […]
To test PLA2-GIB activity on [3H] arachidonic acid labelled CD4 T lymphocytes, cells were unfrozen in 10% FBS RPMI preheated at 37° C. by centrifugation at 580×g for 10 minutes at room temperature, washed twice in 2.5% FBS RPMI, and equilibrated at 2×10^5 CD4 T cells/400 μl/well in 24-well polystyrene plates for 1 h30 at 37° C. in a 5% CO2 humidified atmosphere. […] The [3H] arachidonic acid released in cell supernatant was quantified in 300 μl with 16 ml of Ultima gold (Perkin Elmer, 6013329) in low diffusion vials (Perkin Elmer, 6000477) on a counter (tri-Carb 2800 TR liquid scintillation analyzer, Perkin Elmer). […]

[3] = biological target: gC1qR at the surface of human CD4 T cells / Jurkat E6.1 T cells (human) (UniProt Q07021); assay: cell-based or functional assay

Molecule: C1q: Complement component C1q from human serum (Sigma C1740), natural ligand of gC1qR
- inhibition of pSTAT5 NT (pSTAT5 NT in CD4 T cells; C1q alone (10 μg/ml), FIG. 6A): 40%

Molecule: NH2-PWNATWTQRTLDDIW—COOH (H-PWNATWTQRTLDDIW-OH) [CTL peptide, control peptide for PEP3]
- effect on pSTAT5 NT (pSTAT5 NT in CD4 T cells; peptide alone, without PLA2-GIB): no effect
- effect on pSTAT5 NT (pSTAT5 NT in CD4 T cells; peptide with 5 nM of PLA2-GIB): no effect
- binding to gC1qR (gC1qR): essentially do not

Molecule: NH2-SGEGGWSNGSLVDIM-COOH (H-SGEGGWSNGSLVDIM-OH) [HP Pg]
- PLA2-GIB activity vs scrambled PEP3 (PLA2-GIB [1]): significantly increased

Molecule: NH2-WNWDSKILSDPAWNS—COOH (H-WNWDSKILSDPAWNS-OH) [Scrambled PEP3, scrambled version of PEP3 used as control]
- binding to gC1qR (gC1qR): essentially do not

Molecule: PLA2-GIB: Human group IB pancreatic phospholipase A2, recombinant, produced in E. coli or in CHO-S
- nuclear translocation of phosphoSTAT5 (pSTAT5 NT) induced by IL-7 (pSTAT5 NT in CD4 T cells; 5 nM of PLA2-GIB alone): does not affect
- pSTAT5 NT in response to IL-7 (pSTAT5 NT in CD4 T cells; 5 nM of PLA2-GIB, compared with more than 92% without PLA2-GIB): biologically similar
- inhibition of pSTAT5 NT (pSTAT5 NT in CD4 T cells; 75 nM of PLA2-GIB alone, FIG. 4): 49%
- nuclear translocation of phosphoSTAT5 (pSTAT5 NT) induced by IL-7 (pSTAT5 NT in CD4 T cells; 75 nM of PLA2-GIB alone): significantly decreases
- pSTAT5 NT in response to IL-7 (pSTAT5 NT in CD4 T cells; 75 nM of PLA2-GIB): 50%
- inhibition of pSTAT5 NT (pSTAT5 NT in CD4 T cells; 250 nM of PLA2-GIB alone, FIG. 4): 79%
- pSTAT5 NT in response to IL-7 (pSTAT5 NT in CD4 T cells; 250 nM of PLA2-GIB): 10%

Molecule: SA protein A: Staphylococcus aureus protein A, Sigma P6031
- release of [3H] arachidonic acids by CD4 T cells (PLA2-GIB [2]): slightly induces

Molecule: H-PWNASWSNKSLDDIW-OH [PEP3 peptide NH2-…-COOH]
- inhibition of pSTAT5 NT in CD4 T cells, 0.025 ug/ml PEP3 with 5 nM PLA2-GIB [3]: 18%
- inhibition of pSTAT5 NT in CD4 T cells, 0.5 ug/ml PEP3 with 5 nM PLA2-GIB [3]: 55%
- inhibition of pSTAT5 NT in CD4 T cells, 2.5 ug/ml PEP3 with 5 nM PLA2-GIB [3]: 51%
